Assay results published in US4921850A, “3-propenylcephem derivative” (Eisai Co., Ltd., priority 1986, dated 1990).
Converted amounts (≈) assume the structure as drawn. Like-named read-outs stand apart in the source and are kept apart here.

Key:
Test in all cases: Anti-bacterial activity (MIC), agar dilution
Format in all cases: cell-based
[1] = test system: Ser. marcescens ES-75; settings: Ser. marcescens ES-75, agar dilution, about 10^6 CFU/ml, 18 hours, 37° C.
Protocol: (§1) MIC (μg/ml) were determined by an agar dilution method [Chemotherapy (Japan), 29, 76-79, 1981]. Overnight cultures of the bacterial strains in Mueller-Hinton broth were diluted to final concentration of about 10^6 CFU/ml, and 5 μl of each bacterial suspension was spotted onto Mueller-Hinton agar plates that contained twofold serial dilutions of antibiotics. MICs were measured after incubation for 18 hours at 37° C.

[2] = test system: Staph. aureus 209-P; settings: Staph. aureus 209-P, agar dilution, about 10^6 CFU/ml, 18 hours, 37° C.
Protocol: as §1

[3] = test system: Morganella morganii EP-14; settings: about 10^6 CFU/ml, 37° C.
Protocol: as §1

[4] = test system: Kleb. pneumoniae EK-6; settings: Kleb. pneumoniae EK-6, agar dilution, about 10^6 CFU/ml, 18 hours, 37° C.
Protocol: as §1

[5] = test system: Pseud. aeruginosa EP-01; settings: Pseud. aeruginosa EP-01, agar dilution, about 10^6 CFU/ml, 18 hours, 37° C.
Protocol: as §1

[6] = test system: Escher. coli NIHJ; settings: Escher. coli NIHJ, agar dilution, about 10^6 CFU/ml, 18 hours, 37° C.
Protocol: as §1

[7] = Serratia marcescens, ES75, 18 h, read-out: MIC
[8] = Staphylococcus aureus, 209P, 18 h, read-out: MIC
[9] = Morganella morganii, EP14, 18 h, read-out: MIC
[10] = Klebsiella pneumoniae, EK6, 18 h, read-out: MIC
[11] = Pseudomonas aeruginosa, EP01, 18 h, read-out: MIC
[12] = Escherichia coli, 18 h, read-out: MIC

Structure (SMILES) | MIC [1, 7] [µg/mL] | MIC [2, 8] [µg/mL] | MIC [3, 9] [µg/mL] | MIC [4, 10] [µg/mL] | MIC [5, 11] [µg/mL] | MIC [6, 12] [µg/mL] | MIC [1] [µg/mL] | MIC [2] [µg/mL] | MIC ([3]; 18 hours) [µg/mL] | MIC [4] [µg/mL] | MIC [5] [µg/mL] | MIC [6] [µg/mL]
Nc1nc(/C(=N/OCF)C(=O)N[C@@H]2C(=O)N3C(C(=O)[O-])=C(/C=C/C[N+]4(CCO)CCN(S(N)(=O)=O)CC4)CS[C@H]23)ns1 [Example 29] | 0.1 (≈ 0.154 µM) | 0.4 (≈ 0.616 µM) | ≤ 0.025 | ≤ 0.025 | 0.8 (≈ 1.23 µM) | ≤ 0.025 |  |  |  |  |  | 
Nc1nc(/C(=N/OCF)C(=O)N[C@@H]2C(=O)N3C(C(=O)[O-])=C(/C=C/C[N+]4(CCO)CCC(O)C4)CS[C@H]23)ns1 (stereo partly drawn) [Example 15-2] |  |  |  |  |  |  | ≤ 0.025 | 0.4 (≈ 0.7 µM) | ≤ 0.025 | ≤ 0.025 | 1.56 (≈ 2.73 µM) | ≤ 0.025
NC(=O)C1=CC[N+](C/C=C/C2=C(C(=O)[O-])N3C(=O)[C@@H](NC(=O)/C(=N\OCF)c4nsc(N)n4)[C@H]3SC2)(CCO)CC1 (stereo partly drawn) [Example 43] | ≤ 0.025 | 0.2 (≈ 0.328 µM) | ≤ 0.025 | ≤ 0.025 | 0.8 (≈ 1.31 µM) | ≤ 0.025 |  |  |  |  |  | 
C[N+](C)(C/C=C/C1=C(C(=O)[O-])N2C(=O)[C@@H](NC(=O)/C(=N\OCF)c3nsc(N)n3)[C@H]2SC1)[C@@H](CC(N)=O)C(N)=O [Example 60] | ≤ 0.025 | 0.2 (≈ 0.334 µM) | ≤ 0.025 | 0.05 (≈ 0.0834 µM) | 1.56 (≈ 2.6 µM) | ≤ 0.025 |  |  |  |  |  | 
C[C@H](CO)[N+](C)(C)C/C=C/C1=C(C(=O)[O-])N2C(=O)[C@@H](NC(=O)/C(=N\OCF)c3nsc(N)n3)[C@H]2SC1 [Example 68] | ≤ 0.025 | 0.2 (≈ 0.368 µM) | ≤ 0.025 | ≤ 0.025 | 0.8 (≈ 1.47 µM) | ≤ 0.025 |  |  |  |  |  | 
Nc1nc(/C(=N/OCF)C(=O)N[C@@H]2C(=O)N3C(C(=O)[O-])=C(/C=C/C[N+]4(CCO)CCC(O)CC4)CS[C@H]23)ns1 (stereo partly drawn) [Example 91] | ≤ 0.025 | 0.2 (≈ 0.342 µM) | ≤ 0.025 | ≤ 0.025 | 1.56 (≈ 2.66 µM) | 0.05 (≈ 0.0854 µM) |  |  |  |  |  | 
C[N+]1(CC=CC2=C(C(=O)[O-])N3C(=O)C(NC(=O)C(=NOCF)c4nsc(N)n4)C3SC2)CC(O)CC1CO (stereo not drawn) [Example 89-1] | ≤ 0.025 | 0.2 (≈ 0.35 µM) | ≤ 0.025 | ≤ 0.025 | 0.8 (≈ 1.4 µM) | ≤ 0.025 |  |  |  |  |  | 
CC(C(N)=O)[N+]1(C/C=C/C2=C(C(=O)[O-])N3C(=O)[C@@H](NC(=O)/C(=N\OCF)c4nsc(N)n4)[C@H]3SC2)CCCC1 (single isomer, unassigned) [Example 13-2] |  |  |  |  |  |  | 0.05 (≈ 0.0858 µM) | 0.2 (≈ 0.343 µM) | 0.05 (≈ 0.0858 µM) | ≤ 0.025 | 1.56 (≈ 2.68 µM) | ≤ 0.025
Nc1nc(/C(=N/OCF)C(=O)N[C@@H]2C(=O)N3C(C(=O)[O-])=C(/C=C/C[n+]4ccc(C(=O)N(CCO)CCO)cc4)CS[C@H]23)ns1 [Example 83] | 0.1 (≈ 0.154 µM) | 0.8 (≈ 1.23 µM) | ≤ 0.025 | ≤ 0.025 | 3.13 (≈ 4.81 µM) | 0.05 (≈ 0.0768 µM) |  |  |  |  |  | 
C[N+](C)(C/C=C/C1=C(C(=O)[O-])N2C(=O)[C@@H](NC(=O)/C(=N\OCF)c3nsc(N)n3)[C@H]2SC1)Cc1ccn[nH]1 [Example 102] | 0.05 (≈ 0.0884 µM) | 0.2 (≈ 0.354 µM) | ≤ 0.025 | ≤ 0.025 | 1.56 (≈ 2.76 µM) | ≤ 0.025 |  |  |  |  |  | 
NC(=O)C[N+]1(C/C=C/C2=C(C(=O)[O-])N3C(=O)[C@@H](NC(=O)/C(=N\OCF)c4nsc(N)n4)[C@H]3SC2)CCN(C(N)=O)CC1 [Example 31] | 0.1 (≈ 0.16 µM) | 0.4 (≈ 0.638 µM) | ≤ 0.025 | ≤ 0.025 | 1.56 (≈ 2.49 µM) | 0.05 (≈ 0.0798 µM) |  |  |  |  |  | 
C[N+](C)(C/C=C/C1=C(C(=O)[O-])N2C(=O)[C@@H](NC(=O)/C(=N\OCF)c3nsc(N)n3)[C@H]2SC1)C(CO)CO [Example 95] | ≤ 0.025 | 0.2 (≈ 0.357 µM) | ≤ 0.025 | ≤ 0.025 | 0.8 (≈ 1.43 µM) | 0.05 (≈ 0.0893 µM) |  |  |  |  |  | 
